Experimental data published in publication PMC7093416, “Selective USP7 inhibition elicits cancer cell killing through a p53-dependent mechanism” (Scientific Reports, 2020).
Values joined by “and” are separate entries in the source; they are usually repeats but may differ in a detail not shown here. Equal values may be shown once.

System: panel of 484 cancer cell lines
Assay: PRISM cancer cell line profiling, 5 days
Type: cell-based
Design: Viability: scale not given here; AUC: unit not given beside the values
Protocol: Cancer cell line profiling was performed using the Broad’s PRISM platform. Cell treatment and data analysis were performed as described in Yu et al[42]. Raw Luminex signal was converted to AUC values for each cell line as described. The resulting AUC profile for each compound was modeled against DepMap using the limma package in R[71]. Because hotspot mutation analysis was performed against DepMap, TP53 annotations in Fig. 6c,d are directly from DepMap.

[1] = GCIY_STOMACH, pert_dose 6.10E-04
[2] = GCT_SOFT_TISSUE, pert_dose 6.10E-04
[3] = GI1_CENTRAL_NERVOUS_SYSTEM, pert_dose 6.10E-04
[4] = GMS10_CENTRAL_NERVOUS_SYSTEM, pert_dose 6.10E-04
[5] = GOS3_CENTRAL_NERVOUS_SYSTEM, pert_dose 6.10E-04
[6] = HCC56_LARGE_INTESTINE, pert_dose 6.10E-04
[7] = HCC366_LUNG, pert_dose 6.10E-04
[8] = HCC1143_BREAST, pert_dose 6.10E-04
[9] = HCC1195_LUNG, pert_dose 6.10E-04
[10] = HCC1359_LUNG, pert_dose 6.10E-04
[11] = HCC1419_BREAST, pert_dose 6.10E-04
[12] = HCC1428_BREAST, pert_dose 6.10E-04
[13] = HCC1438_LUNG, pert_dose 6.10E-04
[14] = HCC1806_BREAST, pert_dose 6.10E-04
[15] = HCC4006_LUNG, pert_dose 6.10E-04
[16] = HCT15_LARGE_INTESTINE, pert_dose 6.10E-04
[17] = HCT116_LARGE_INTESTINE, pert_dose 6.10E-04
[18] = HDQP1_BREAST, pert_dose 6.10E-04

In the case of `COc1ccc(C2=N[C@@H](c3ccc(Cl)cc3)[C@@H](c3ccc(Cl)cc3)N2C(=O)N2CCNC(=O)C2)c(OC(C)C)c1` [Nutlin-3A], the AUC (FTC238_THYROID) is reported as 1.264, the “MFI FTC238_THYROID” value (FTC238_THYROID, pert_dose 6.10E-04) is reported as 2880 and 3372 and 2980.5 and 2950.5 and 4003.5 and the AUC (G292CLONEA141B1_BONE) is reported as 1.148. For the same compound, the AUC (G361_SKIN) was 1.031, the “MFI G361_SKIN” value (G361_SKIN, pert_dose 6.10E-04) was 10064 and 9507.5 and 5703 and 7102 and 9477 and the AUC (G401_SOFT_TISSUE) was 0.8138. The AUC (G402_SOFT_TISSUE) was 0.8312, the “MFI G402_SOFT_TISSUE” value (G402_SOFT_TISSUE, pert_dose 6.10E-04) was 8566 and 7883 and 9123.5 and 10028.5 and 7843.5 and the AUC (GAMG_CENTRAL_NERVOUS_SYSTEM) was 1.104. The AUC (GB1_CENTRAL_NERVOUS_SYSTEM) was 1.08, the “MFI GB1_CENTRAL_NERVOUS_SYSTEM” value (GB1_CENTRAL_NERVOUS_SYSTEM, pert_dose 6.10E-04) was 8797 and 10917.5 and 10369 and 11626 and 6173 and the AUC (GCIY_STOMACH) was 1.0178. For the same compound, the “MFI GCIY_STOMACH” value [1] was 10513.5 and 10287.5 and 8158.5 and 7393 and 6559.5, the Viability [1] was 1.05 and the AUC (GCT_SOFT_TISSUE) was 1.1243. The “MFI GCT_SOFT_TISSUE” value [2] was 30402 and 32248 and 27974 and 25401 and 26115.5, the Viability [2] was 1.1 and the AUC (GI1_CENTRAL_NERVOUS_SYSTEM) was 1.1989. For the same compound, the “MFI GI1_CENTRAL_NERVOUS_SYSTEM” value [3] was 7007.5 and 7677 and 5613.5 and 9782 and 8476.5, the Viability [3] was 1.209 and the AUC (GMS10_CENTRAL_NERVOUS_SYSTEM) was 1.196. The “MFI GMS10_CENTRAL_NERVOUS_SYSTEM” value [4] was 2195 and 3287.5 and 2615 and 2263.5 and 2230, the Viability [4] was 0.8757 and the AUC (GOS3_CENTRAL_NERVOUS_SYSTEM) was 0.8893. For the same compound, the “MFI GOS3_CENTRAL_NERVOUS_SYSTEM” value [5] was 16506.5 and 12732.5 and 12479 and 15312 and 16884, the Viability [5] was 1.256 and the AUC (GP2D_LARGE_INTESTINE) was 0.8664. For the same compound, the AUC (H4_CENTRAL_NERVOUS_SYSTEM) was 0.8741, the AUC (HARA_LUNG) was 1.148 and the “MFI HARA_LUNG” value (HARA_LUNG, pert_dose 6.10E-04) was 10420 and 10731 and 9850 and 12219 and 8432. For the same compound, the Viability (HARA_LUNG, pert_dose 6.10E-04) was 1.156, the AUC (HCC15_LUNG) was 1.083 and the “MFI HCC15_LUNG” value (HCC15_LUNG, pert_dose 6.10E-04) was 10708.5 and 9658 and 9646.5 and 7600 and 8929.5. For the same compound, the AUC (HCC38_BREAST) was 1.13, the AUC (HCC44_LUNG) was 1.143 and the “MFI HCC44_LUNG” value (HCC44_LUNG, pert_dose 6.10E-04) was 8858.5 and 14957 and 12427 and 9895 and 9714. The Viability (HCC44_LUNG, pert_dose 6.10E-04) was 0.9479, the AUC (HCC56_LARGE_INTESTINE) was 1.116 and the “MFI HCC56_LARGE_INTESTINE” value [6] was 22390 and 19383.5 and 18019.5 and 16274 and 12370. The Viability [6] was 1.19, the AUC (HCC78_LUNG) was 1.129 and the “MFI HCC78_LUNG” value (HCC78_LUNG, pert_dose 6.10E-04) was 13938.5 and 17123.5 and 16093 and 13546.5 and 12989. The Viability (HCC78_LUNG, pert_dose 6.10E-04) was 1.137, the AUC (HCC95_LUNG) was 1.133 and the “MFI HCC95_LUNG” value (HCC95_LUNG, pert_dose 6.10E-04) was 19085 and 17009 and 14223 and 15820 and 14624.5. The Viability (HCC95_LUNG, pert_dose 6.10E-04) was 1.3736, the AUC (HCC366_LUNG) was 1.1015 and the “MFI HCC366_LUNG” value [7] was 3176 and 4976 and 3338 and 4080 and 5551.5. For the same compound, the Viability [7] was 0.8601, the AUC (HCC827_LUNG) was 1.216 and the AUC (HCC1143_BREAST) was 1.173. For the same compound, the “MFI HCC1143_BREAST” value [8] was 10292 and 10056.5 and 12994 and 8725 and 11412, the Viability [8] was 1.09 and the AUC (HCC1195_LUNG) was 0.9896. For the same compound, the “MFI HCC1195_LUNG” value [9] was 3248 and 2450 and 2557 and 3311 and 2339, the Viability [9] was 0.8066 and the AUC (HCC1359_LUNG) was 1.205. The “MFI HCC1359_LUNG” value [10] was 3254.5 and 3202.5 and 4282 and 3759 and 4252, the Viability [10] was 1.0552 and the AUC (HCC1419_BREAST) was 1.157. The “MFI HCC1419_BREAST” value [11] was 4554 and 3766 and 6250 and 4022 and 3342, the Viability [11] was 1.3281 and the AUC (HCC1428_BREAST) was 1.0418. The “MFI HCC1428_BREAST” value [12] was 5601.5 and 4304.5 and 6512 and 4295 and 6602.5, the Viability [12] was 0.9769 and the AUC (HCC1438_LUNG) was 1.064. For the same compound, the “MFI HCC1438_LUNG” value [13] was 3705.5 and 4037.5 and 3791 and 2958 and 2338, the Viability [13] was 1.029 and the AUC (HCC1588_LUNG) was 0.8674. For the same compound, the “MFI HCC1588_LUNG” value (HCC1588_LUNG, pert_dose 6.10E-04) was 12748 and 13169 and 10479 and 16252.5 and 12413.5, the AUC (HCC1806_BREAST) was 1.223 and the “MFI HCC1806_BREAST” value [14] was 4998.5 and 5222.5 and 6609 and 6768 and 3833.5. For the same compound, the Viability [14] was 1.444, the AUC (HCC1937_BREAST) was 1.259 and the Viability (HCC1937_BREAST, pert_dose 6.10E-04) was 0.8468. For the same compound, the AUC (HCC4006_LUNG) was 1.075, the “MFI HCC4006_LUNG” value [15] was 13511 and 17514.5 and 15021 and 17956 and 15891.5 and the Viability [15] was 1.081. The AUC (HCT15_LARGE_INTESTINE) was 1.231, the “MFI HCT15_LARGE_INTESTINE” value [16] was 19712 and 17910 and 19958 and 21240.5 and 15477 and the Viability [16] was 1.456. For the same compound, the AUC (HCT116_LARGE_INTESTINE) was 0.9703, the “MFI HCT116_LARGE_INTESTINE” value [17] was 29799 and 33721.5 and 25531.5 and 28789.5 and 30554.5 and the Viability [17] was 1.204. For the same compound, the AUC (HDQP1_BREAST) was 1.144, the “MFI HDQP1_BREAST” value [18] was 7912.5 and 7534 and 9203 and 8805.5 and 8820 and the Viability [18] was 1.159. For the same compound, the AUC (HEC1A_ENDOMETRIUM) was 0.9522, the AUC (HEC1B_ENDOMETRIUM) was 1.073 and the Viability (HEC1B_ENDOMETRIUM, pert_dose 6.10E-04) was 0.9409. For the same compound, the AUC (HEC6_ENDOMETRIUM) was 1.185.
